Measurements as given in PubChem BioAssay AID2060501 (Molecular Pharmacology Branch, DTP, NCI, 2025).

Tested on: 282377-053-R-J1-PDC complex spheroids, viability
Assay: Anticancer human tumor 282377-053-R-J1-PDC patient-derived colon adenocarcinoma cell line growth inhibition [GQUAD]
Conditions: for IC50: curve of first compound; for viability, T/C: stronger effect = lower value
Procedure, shortened: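 Tumor cells were grown as complex spheroids with HUVEC endothelial cells and mesenchymal stem cells as stroma. G-quadruplex stabilizers were combined with targeted agents over half-log dilutions from near the clinical Cmax, or from 10 microM.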

[1] = second compound 0.0316 µM, first compound 0.0316 µM
[2] = second compound 0.0316 µM, first compound 0.1 µM
[3] = second compound 0.0316 µM, first compound 0.316 µM
[4] = second compound 0.0316 µM, first compound 1 µM
[5] = second compound 0.0316 µM, first compound 3.16 µM
[6] = second compound 0.0316 µM, first compound 10 µM
[7] = second compound 0.1 µM, first compound 0.0316 µM
[8] = second compound 0.1 µM, first compound 0.1 µM
[9] = second compound 0.1 µM, first compound 0.316 µM
[10] = second compound 0.1 µM, first compound 1 µM
[11] = second compound 0.1 µM, first compound 3.16 µM
[12] = second compound 0.1 µM, first compound 10 µM
[13] = second compound 0.316 µM, first compound 0.0316 µM
[14] = second compound 0.316 µM, first compound 0.1 µM
[15] = second compound 0.316 µM, first compound 0.316 µM
[16] = second compound 0.316 µM, first compound 1 µM
[17] = second compound 0.316 µM, first compound 3.16 µM
[18] = second compound 0.316 µM, first compound 10 µM
[19] = second compound 1 µM, first compound 0.0316 µM
[20] = second compound 1 µM, first compound 0.1 µM
[21] = second compound 1 µM, first compound 0.316 µM
[22] = second compound 1 µM, first compound 1 µM
[23] = second compound 1 µM, first compound 3.16 µM
[24] = second compound 1 µM, first compound 10 µM
[25] = second compound 3.16 µM, first compound 0.0316 µM
[26] = second compound 3.16 µM, first compound 0.1 µM
[27] = second compound 3.16 µM, first compound 0.316 µM
[28] = second compound 3.16 µM, first compound 1 µM
[29] = second compound 3.16 µM, first compound 3.16 µM
[30] = second compound 3.16 µM, first compound 10 µM
[31] = second compound 10 µM, first compound 0.0316 µM
[32] = second compound 10 µM, first compound 0.1 µM
[33] = second compound 10 µM, first compound 0.316 µM
[34] = second compound 10 µM, first compound 1 µM
[35] = second compound 10 µM, first compound 3.16 µM
[36] = second compound 10 µM, first compound 10 µM
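Further: spheroids exposed to compounds for 7 days before readout.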
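Wherever viability, T/C is given: percent of vehicle DMSO control viability with 100% = untreated-like growth.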

`COc1ncnc(C2CC2)c1-c1ncc2cnn(Cc3ccc(-c4nc(C(F)(F)F)cn4C(C)C)cc3)c2n1` + CN(C)c1ccc(Nc2c3ccc(NC(=O)CCN4CCCC4)cc3nc3cc(NC(=O)CCN4CCCC4)ccc23)cc1 was tested, and the IC50 (second compound 0.0316 µM) was over 10000 nM, the IC50 (second compound 0.1 µM) was over 10000 nM and the IC50 (second compound 0.316 µM) was over 10000 nM. For the same molecule, the IC50 (second compound 1 µM) was over 10000 nM, the IC50 (second compound 3.16 µM) was over 10000 nM and the IC50 (second compound 10 µM) was over 10000 nM. It also gave a viability, T/C [1] of 108%, a viability, T/C [2] of 83.7% and a viability, T/C [3] of 95.1%. It also gave a viability, T/C [4] of 76.5%, a viability, T/C [5] of 88.1% and a viability, T/C [6] of 66.2%. For the same molecule, the viability, T/C [7] was 97.1%, the viability, T/C [8] was 90.2% and the viability, T/C [9] was 102%. For the same molecule, the viability, T/C [10] was 87.6%, the viability, T/C [11] was 81.4% and the viability, T/C [12] was 76.7%. The viability, T/C [13] was 88.3%, the viability, T/C [14] was 95.8% and the viability, T/C [15] was 86.6%. The viability, T/C [16] was 78.5%, the viability, T/C [17] was 87.6% and the viability, T/C [18] was 77.8%. The viability, T/C [19] was 84.5%, the viability, T/C [20] was 83.4% and the viability, T/C [21] was 93%. For the same molecule, the viability, T/C [22] was 75.4%, the viability, T/C [23] was 79.6% and the viability, T/C [24] was 80.8%. It also gave a viability, T/C [25] of 92.1%, a viability, T/C [26] of 85.8% and a viability, T/C [27] of 88.2%. It also gave a viability, T/C [28] of 86.4%, a viability, T/C [29] of 75% and a viability, T/C [30] of 77.7%. The viability, T/C [31] was 85.4%, the viability, T/C [32] was 66.8% and the viability, T/C [33] was 74.8%. It also gave a viability, T/C [34] of 66.3%, a viability, T/C [35] of 94.8% and a viability, T/C [36] of 82.3%.

`CC(C)n1c(=O)n(C)c2cnc3cc(F)c(-c4ccc(OCCCN5CCCCC5)nc4)cc3c21` + Cc1[nH]c2ccc(F)cc2c1-c1nc2c3cccnc3c3ncccc3c2[nH]1 showed an IC50 (second compound 0.0316 µM) of over 10000 nM, an IC50 (second compound 0.1 µM) of over 10000 nM and an IC50 (second compound 0.316 µM) of over 10000 nM. The IC50 (second compound 1 µM) was over 10000 nM, the IC50 (second compound 3.16 µM) was 6160 nM and the IC50 (second compound 10 µM) was 43.5 nM. The viability, T/C [1] was 123%, the viability, T/C [2] was 91.5% and the viability, T/C [3] was 123%. It also gave a viability, T/C [4] of 104%, a viability, T/C [5] of 101% and a viability, T/C [6] of 94.1%. For the same molecule, the viability, T/C [7] was 101%, the viability, T/C [8] was 118% and the viability, T/C [9] was 94.2%. The viability, T/C [10] was 88.6%, the viability, T/C [11] was 118% and the viability, T/C [12] was 92.6%. It also gave a viability, T/C [13] of 132%, a viability, T/C [14] of 115% and a viability, T/C [15] of 100%. It also gave a viability, T/C [16] of 112%, a viability, T/C [17] of 108% and a viability, T/C [18] of 91.5%. It also gave a viability, T/C [19] of 106%, a viability, T/C [20] of 116% and a viability, T/C [21] of 107%. For the same molecule, the viability, T/C [22] was 112%, the viability, T/C [23] was 98.4% and the viability, T/C [24] was 93%. It also gave a viability, T/C [25] of 89%, a viability, T/C [26] of 78.8% and a viability, T/C [27] of 86.7%. For the same molecule, the viability, T/C [28] was 66.3%, the viability, T/C [29] was 73.6% and the viability, T/C [30] was 36.5%. It also gave a viability, T/C [31] of 53%, a viability, T/C [32] of 40.7% and a viability, T/C [33] of 44.3%. For the same molecule, the viability, T/C [34] was 29.6%, the viability, T/C [35] was 23.9% and the viability, T/C [36] was 19%.

With `CC1COCCN1c1cc(-c2ccnn2C)c2ccnc(-c3ccn[nH]3)c2n1` (stereo unspecified) + Cc1[nH]c2ccc(F)cc2c1-c1nc2c3cccnc3c3ncccc3c2[nH]1 the IC50 (second compound 0.0316 µM) was 659 nM, the IC50 (second compound 0.1 µM) was 506 nM and the IC50 (second compound 0.316 µM) was 400 nM. The IC50 (second compound 1 µM) was 460 nM, the IC50 (second compound 3.16 µM) was 40 nM and the IC50 (second compound 10 µM) was under 31.6 nM. For the same molecule, the viability, T/C [1] was 83.8%, the viability, T/C [2] was 82.6% and the viability, T/C [3] was 73.3%. For the same molecule, the viability, T/C [4] was 36.4%, the viability, T/C [5] was 27.5% and the viability, T/C [6] was 20.9%. It also gave a viability, T/C [7] of 79.3%, a viability, T/C [8] of 85% and a viability, T/C [9] of 56.5%. The viability, T/C [10] was 37.3%, the viability, T/C [11] was 24.2% and the viability, T/C [12] was 19.7%. For the same molecule, the viability, T/C [13] was 103%, the viability, T/C [14] was 77.5% and the viability, T/C [15] was 49.4%. It also gave a viability, T/C [16] of 37.7%, a viability, T/C [17] of 30.5% and a viability, T/C [18] of 17.6%. It also gave a viability, T/C [19] of 87.2%, a viability, T/C [20] of 79.3% and a viability, T/C [21] of 59%. The viability, T/C [22] was 31.9%, the viability, T/C [23] was 21.5% and the viability, T/C [24] was 18.8%. For the same molecule, the viability, T/C [25] was 52.9%, the viability, T/C [26] was 38.6% and the viability, T/C [27] was 12.8%. It also gave a viability, T/C [28] of 8.91%, a viability, T/C [29] of 4.88% and a viability, T/C [30] of 4.03%. For the same molecule, the viability, T/C [31] was 35.6%, the viability, T/C [32] was 23.9% and the viability, T/C [33] was 9.76%. The viability, T/C [34] was 5.71%, the viability, T/C [35] was 3.51% and the viability, T/C [36] was 2.86%.
